Measurements: publication PMC3410894, “Structural and Biochemical Basis for Development of Influenza Virus Inhibitors Targeting the PA Endonuclease” (PLoS Pathogens, 2012)
Like-named read-outs stand apart in the source and are kept apart here.

Legend:
[1] = biological target: PAN endonuclease (Influenza A virus, UniProt Q5EP34); type: biochemical, H5N1 influenza virus A/Vietnam/1203/2004
[2] = biological target: PAN (Influenza A virus, UniProt Q5EP34); type: binding, H5N1 influenza virus A/Vietnam/1203/2004
[3] = system: influenza virus; details: cited from earlier work
[4] = system: influenza virus; details: mouse, in vivo; cited from earlier work
[5] = system: H1N1 influenza A virus (A/PuertoRico/8/34); assay: microbe, parasite or virus in culture; type: cell-based; details: H1N1, MDCK, 72 h, read-out: Antiviral Activity IC50
[6] = in vitro; details: dog
[7] = biological target: influenza A polymerase; details: read-out: Reported IC50; cited from earlier work
[8] = system: influenza A polymerase; type: biochemical, influenza A virus
[9] = system: H1N1 influenza A virus (A/PuertoRico/8/34); set-up: method as in PMID 22211528; details: plaque formation, MDCK cells, 72 h, measured previously; read-out: Antiviral Activity IC50; cited from earlier work
[10] = system: MDCK cells; details: cited from earlier work

In the case of “2,4-dioxo-4-phenylbutanoic acid [Compound 2]”, the “Inhibition of PAN endonuclease activity” value [1] is reported as “inhibited PAN enzymatic activity in a dose-dependent manner” and the “ITC binding stoichiometry N (compound per PAN)” value [2] is reported as 1.86.

With `O=C1Cc2ccccc2C(=O)N1O` [Compound 1] the “Inhibition of PAN endonuclease activity” value [1] was “inhibited PAN enzymatic activity in a dose-dependent manner”.

In the case of `O=C(O)/C(O)=C/C(=O)C1(Cc2ccc(Cl)cc2)CCN(Cc2ccccc2)CC1` [Compound 3, L-742,001], the “Inhibition of PAN endonuclease activity” value [1] is given as “inhibited PAN enzymatic activity in a dose-dependent manner”, the IC50 ([3]; read-out: IC50, inhibition of viral replication in cell culture) is given as 0.35 µM and the “Inhibition of viral replication in mice (qualitative)” value [4] is given as “dose-dependent inhibition of viral replication”.

For `Cn1cnc(-c2nc(C(=O)O)c(O)c(=O)[nH]2)c1` [Compound 4, 5-hydroxy-2-(1-methyl-1H-imidazol-4-yl)-6-oxo-1,6-dihydropyrimidine-4-carboxylic acid], the “Inhibition of PAN endonuclease activity” value [1] was “inhibit PAN activity”, the IC50 [5] was greater than 50 µM and the CC50 at 72 h [6] was greater than 60 µM.

For `CC(=O)Nc1cccc(-c2nc(C(=O)O)c(O)c(=O)[nH]2)c1` [Compound 5, 2-(3-acetamidophenyl)-5-hydroxy-6-oxo-1,6-dihydropyrimidine-4-carboxylic acid], the “Inhibition of PAN endonuclease activity” value [1] was “inhibit PAN activity”, the IC50 [5] was greater than 50 µM and the CC50 at 72 h [6] was 48.7 ± 1.2 µM.

In the case of `O=C(O)c1cccc(O)c1O` [Compound 6, dihydroxybenzoic acid], the “Inhibition of PAN endonuclease activity” value [1] is reported as “little ability to inhibit PAN endonuclease activity”.

In the case of `CC(C)/C=C1\N=C(CC(C)C)C(=O)N(O)C1=O` [Compound 7, Flutimide], the IC50 [7] is listed as 5.5 µM.

In the case of `CC(C)CC1=N/C(=C\c2ccc(F)cc2)C(=O)N(O)C1=O` [Compound 8], the “Fold increase in potency compared with Flutimide” value [8] is listed as 6 fold and the IC50 [7] is listed as 0.9 µM.

For `CC(C)CC1=N/C(=C\c2ccc(F)cc2)C(=O)NC1=O` [Compound 9], the IC50 [7] is given as greater than 365 µM.

For `O=C1Cc2ccccc2CC(=O)N1O` [Compound 11], the IC50 [7] is listed as greater than 1000 µM.

In the case of `CC(C)C(=O)C=C(O)C(=O)O` [Compound 13], the “Fold reduction in potency compared with 2” value [8] is given as 2.6 fold and the IC50 [7] is given as 56.7 µM.

For `CC(=O)C=C(O)C(=O)O` [Compound 14], the “Fold reduction in potency compared with 2” value [8] is given as 14 fold and the IC50 [7] is given as 307 µM.

In the case of `O=C(CC(O)C(=O)O)c1ccccc1` (centres unmarked) [Compound 16], the IC50 [7] is given as greater than 500 µM.

In the case of `NC(CC(=O)c1ccccc1)C(=O)O` (centres unmarked) [Compound 17], the IC50 [7] is given as greater than 500 µM.

For `O=C(O)/C(O)=C/S(=O)(=O)c1ccccc1` [Compound 19], the IC50 [7] is given as greater than 500 µM.

For `O=C(O)/C(O)=C/C(=O)C1(Cc2ccc(Cl)cc2)CCCN(Cc2ccccc2)C1` [Compound 20, L-735,882], the IC50 [7] is given as 1.1 µM and the “Inhibition of viral replication in cell culture (qualitative)” value (“Inhibition … in cell culture (qualitative)” below) [3] is given as “dose-dependent inhibition of viral replication in cell culture”.

In the case of `O=C(O)/C(O)=C/C(=O)C1(Cc2ccc(Cl)cc2)CCCN(S(=O)(=O)Cc2ccccc2)C1` (centres unmarked) [Compound 21], the IC50 [7] is given as 0.19 µM and the “Inhibition … in cell culture (qualitative)” value [3] is given as “dose-dependent inhibition of viral replication in cell culture”.

For `O=C(O)/C(O)=C/C(=O)C1(Cc2ccc(Cl)cc2)CCN(CC2CCCCC2)CC1` [Compound 22], the “Inhibition … in cell culture (qualitative)” value [3] is listed as “dose-dependent inhibition of viral replication in cell culture”.

In the case of `COC(=O)c1nc(-c2cn(C)cn2)[nH]c(=O)c1O` [Compound 23], the IC50 [5] is reported as greater than 50 µM and the CC50 at 72 h [6] is reported as 53.2 ± 0.9 µM.

For `O=C(O)c1nc(-c2cnccn2)nc(O)c1O` [Compound 24], the IC50 [9] is listed as greater than 50 µM and the CC50 [10] is listed as greater than 60 µM.

`COC(=O)c1nc(-c2cnccn2)[nH]c(=O)c1O` [Compound 25] gave an IC50 [5] greater than 50 µM and a CC50 at 72 h [6] greater than 60 µM.

In the case of `C[C@@H](NC(=O)c1nc(-c2cnccn2)[nH]c(=O)c1O)c1ccccc1` [Compound 26], the IC50 [9] is given as 12.68 ± 0.08 µM and the CC50 [10] is given as greater than 60 µM.
